Results published in patent publication US7989471B2, “Macrocyclic inhibitors of hepatitis C virus” (Tibotec Pharmaceuticals Ltd., priority 2005, dated 2011).

These compounds were tested on HCV replicons (NS3-NS5B regions of HCV type Ib) in Huh-7 luc/neo cells (assay: HCV replicon assay (Huh-Luc luciferase reporter)). Conditions: Hepatitis C virus, Huh-7, 72 h.
Assay type: cell-based
Method: The in vitro antiviral activity against HCV of the compounds of formula (I) was tested in a cellular HCV replicon system based on Lohmann et al. (1999) Science 285:110-113, with the further modifications described by Krieger et al. (2001) Journal of Virology 75: 4614-4624, which is further exemplified in the examples section. This model, while not a complete infection model for HCV, is widely accepted as the most robust and efficient model of autonomous HCV RNA replication currently available. […] It will be appreciated that it is important to distinguish between compounds that specifically interfere with HCV functions from those that exert cytotoxic or cytostatic effects in the HCV replicon model, and as a consequence cause a decrease in HCV RNA or linked reporter enzyme concentration. Assays are known in the field for the evaluation of cellular cytotoxicity based for example on the activity of mitochondrial enzymes using fluorogenic redox dyes such as resazurin. Furthermore, cellular counter screens exist for the evaluation of non-selective inhibition of linked reporter gene activity, such as firefly luciferase. Appropriate cell types can be equipped by stable transfection with a luciferase reporter gene whose expression is dependent on a constitutively active gene promoter, and such cells can be used as a counter-screen to eliminate non-selective inhibitors.
The compounds of formula (I) were examined for activity in the inhibition of HCV RNA replication in a cellular assay. […] The cellular assay was based on a bicistronic expression construct, as described by Lohmann et al. (1999) Science vol. 285 pp. 110-113 with modifications described by Krieger et al. (2001) Journal of Virology 75: 4614-4624, in a multi-target screening strategy. In essence, the method was as follows.
The assay utilized the stably transfected cell line Huh-7 luc/neo (hereafter referred to as Huh-Luc). This cell line harbors an RNA encoding a bicistronic expression construct comprising the wild type NS3-NS5B regions of HCV type Ib translated from an Internal Ribosome Entry Site (IRES) from encephalomyocarditis virus (EMCV), preceded by a reporter portion (FfL-luciferase), and a selectable marker portion (neo^R, neomycine phosphotransferase). The construct is bordered by 5′ and 3′ NTRs (non-translated regions) from HCV type Ib. Continued culture of the replicon cells in the presence of G418 (neo^R) is dependent on the replication of the HCV RNA. The stably transfected replicon cells that express HCV RNA, which replicates autonomously and to high levels, encoding inter alia luciferase, are used for screening the antiviral compounds.
The replicon cells were plated in 384 well plates in the presence of the test and control compounds which were added in various concentrations. Following an incubation of three days, HCV replication was measured by assaying luciferase activity (using standard luciferase assay substrates and reagents and a Perkin Elmer ViewLux™ ultraHTS microplate imager). Replicon cells in the control cultures have high luciferase expression in the absence of any inhibitor. The inhibitory activity of the compound on luciferase activity was monitored on the Huh-Luc cells, enabling a dose-response curve for each test compound.
Compound `COc1ccc2c(O[C@@H]3C[C@H]4C(=O)N[C@]5(C(=O)O)C[C@H]5/C=C\CCCCCC(C)(C)C(=O)N4C3)cc(-c3nc(C(C)C)cs3)nc2c1Cl` [Compound 54, 18-[8-chloro-2-(4-isopropylthiazol-2-yl)-7-methoxyquinolin-4-yloxy]-14,14-dimethyl-2,15-dioxo-3,16-diazatricyclo[14.3.0.0^4,6]nonadec-7-ene-4-carboxylic acid] has an EC50 of no less than 10000 nM.

Same assay, conditions: Hepatitis C virus, Huh-7, 72 h; Huh-Luc replicon cells, three days incubation, luciferase activity; read-out: EC50
In the case of `COc1ccc2c(O[C@@H]3C[C@H]4C(=O)N[C@]5(C(=O)NS(=O)(=O)C6CC6)C[C@H]5CCCCCCCC(=O)N4C3)cc(-c3nc(C(C)C)cs3)nc2c1` (stereo in doubt) [Compound 64, N-[17-[2-(4-isopropylthiazol-2-yl)-7-methoxyquinolin-4-yloxy]-2,14-dioxo-3,15-diazatricyclo[13.3.0.0^4,6]octadecane-4-carbonyl]-(cyclopropyl)sulfonamide], the EC50 is reported as 67 nM. In the case of `COc1ccc2c(O[C@@H]3C[C@H]4C(=O)N[C@]5(C(=O)O)C[C@H]5/C=C\CCCCCCC(=O)N4C3)cc(-c3nc(C(C)C)cs3)nc2c1` [Compound 10, 18-[2-[4-(isopropyl)thiazol-2-yl]-7-methoxyquinolin-4-yloxy]-2,15-dioxo-3,16-diazatricyclo[14.3.0.0^4,6]nonadec-7-ene-4-carboxylic acid], the EC50 is reported as 5040 nM. Compound `COc1ccc2c(O[C@@H]3C[C@H]4C(=O)N[C@]5(C(=O)O)C[C@H]5/C=C\CCCCCCC(=O)N4C3)cc(-c3csc(NC(C)C)n3)nc2c1` [Compound 12, 18-[2-[2-(isopropylamino)thiazol-4-yl]-7-methoxyquinolin-4-yloxy]-2,15-dioxo-3,16-diazatricyclo[14.3.0.0^4,6]nonadec-7-ene-4-carboxylic acid] has an EC50 of 1980 nM. Work on `COc1ccc2c(O[C@@H]3C[C@H]4C(=O)N[C@]5(C(=O)NS(=O)(=O)C6CC6)C[C@H]5/C=C\CCCCCCC(=O)N4C3)cc(-c3csc(NC(C)C)n3)nc2c1` [Compound 13, N-[[18-[2-[2-(isopropylamino)thiazol-4-yl]-7-methoxyquinolin-4-yloxy]-2,15-dioxo-3,16-diazatricyclo[14.3.0.0^4,6]nonadec-7-en-4-yl]carbonyl](cyclopropyl)sulfonamide] yielded an EC50 of 20 nM. `COc1ccc2c(O[C@@H]3C[C@H]4C(=O)N[C@]5(C(=O)NS(=O)(=O)C6CC6)C[C@H]5/C=C\CCCCCCC(=O)N4C3)cc(-c3nccs3)nc2c1C` [Compound 26, N-[18-[2-(thiazol-2-yl)-7-methoxy-8-methylquinolin-4-yloxy]-2,15-dioxo-3,16-diazatricyclo[14.3.0.0^4,6]nonadec-7-ene-4-carbonyl]-(cyclopropyl)sulfonamide] gave an EC50 of 4 nM. For `COc1ccc2c(O[C@@H]3C[C@H]4C(=O)N[C@]5(C(=O)O)C[C@H]5/C=C\CCCCCCC(=O)N4C3)cc(-c3nc(C(C)C)cs3)nc2c1C` [Compound 29, 18-[2-(4-isopropylthiazol-2-yl)-7-methoxy-8-methylquinolin-4-yloxy]-2,15-dioxo-3,16-diazatricyclo[14.3.0.0^4,6]nonadec-7-ene-4-carboxylic acid], the EC50 was 1960 nM. Compound `COc1ccc2c(O[C@@H]3C[C@H]4C(=O)N[C@]5(C(=O)NS(=O)(=O)C6CC6)C[C@H]5/C=C\CCCCCCC(=O)N4C3)cc(-c3nc(C(C)C)cs3)nc2c1C` [Compound 30, N-[18-[2-(4-isopropylthiazol-2-yl)-7-methoxy-8-methylquinolin-4-yloxy]-2,15-dioxo-3,16-diazatricyclo[14.3.0.0^4,6]nonadec-7-ene-4-carbonyl](cyclopropyl)sulfonamide] has an EC50 of 6 nM. In the case of `COc1ccc2c(O[C@@H]3C[C@H]4C(=O)N[C@]5(C(=O)O)C[C@H]5/C=C\CCCCCCC(=O)N4C3)cc(-c3nccs3)nc2c1` [Compound 31, 18-[7-methoxy-2-(thiazol-2-yl)quinolin-4-yloxy]-2,15-dioxo-3,16-diazatricyclo[14.3.0.0^4,6]nonadec-7-ene-4-carboxylic acid], the EC50 is reported as 4940 nM. For `COc1ccc2c(O[C@@H]3C[C@H]4C(=O)N[C@]5(C(=O)NS(=O)(=O)C6CC6)C[C@H]5/C=C\CCCCCCC(=O)N4C3)cc(-c3nccs3)nc2c1` [Compound 32, N-[18-[7-methoxy-2-(thiazol-2-yl)quinolin-4-yloxy]-2,15-dioxo-3,16-diazatricyclo[14.3.0.0^4,6]nonadec-7-ene-4-carbonyl](cyclopropyl)-sulfonamide], the EC50 was 17 nM. With `COc1ccc2c(O[C@@H]3C[C@H]4C(=O)N[C@]5(C(=O)O)C[C@H]5/C=C\CCCCCCC(=O)N4C3)nc(-n3cccn3)cc2c1` [Compound 33, 18-[6-methoxy-3-(pyrazol-1-yl)isoquinolin-1-yloxy]-2,15-dioxo-3,16-diazatricyclo[14.3.0.0^4,6]nonadec-7-ene-4-carboxylic acid] the EC50 was 6100 nM. `COc1ccc2c(O[C@@H]3C[C@H]4C(=O)N[C@]5(C(=O)NS(=O)(=O)C6CC6)C[C@H]5/C=C\CCCCCCC(=O)N4C3)nc(-n3cccn3)cc2c1` [Compound 34, N-[18-[6-methoxy-3-(pyrazol-1-yl)isoquinolin-1-yloxy]-2,15-dioxo-3,16-diazatricyclo[14.3.0.0^4,6]nonadec-7-ene-4-carbonyl](cyclopropyl)-sulfonamide] showed an EC50 of 40 nM. Compound `COc1ccc2c(O[C@@H]3C[C@H]4C(=O)N[C@]5(C(=O)O)C[C@H]5/C=C\CCCCCCC(=O)N4C3)cc(-c3cscn3)nc2c1` [Compound 35, 18-[7-methoxy-2-(thiazol-4-yl)quinolin-4-yloxy]-2,15-dioxo-3,16-diazatricyclo[14.3.0.0^4,6]nonadec-7-ene-4-carboxylic acid] has an EC50 of 1630 nM. For `COc1ccc2c(O[C@@H]3C[C@H]4C(=O)N[C@]5(C(=O)NS(=O)(=O)C6CC6)C[C@H]5/C=C\CCCCCCC(=O)N4C3)cc(-c3cscn3)nc2c1` [Compound 36, N-[18-[7-methoxy-2-(thiazol-4-yl)quinolin-4-yloxy]-2,15-dioxo-3,16-diazatricyclo[14.3.0.0^4,6]nonadec-7-ene-4-carbonyl](cyclopropyl)-sulfonamide], the EC50 was 4 nM. Compound `COc1ccc2c(O[C@@H]3C[C@H]4C(=O)N[C@]5(C(=O)O)C[C@H]5/C=C\CCCCCCC(=O)N4C3)cc(-c3nccs3)nc2c1Br` [Compound 41, 18-[8-bromo-7-methoxy-2-(thiazol-2-yl)quinolin-4-yloxy]-2,15-dioxo-3,16-diazatricyclo[14.3.0.0^4,6]nonadec-7-ene-4-carboxylic acid] has an EC50 of 280 nM. `COc1ccc2c(O[C@@H]3C[C@H]4C(=O)N[C@]5(C(=O)NS(=O)(=O)C6CC6)C[C@H]5/C=C\CCCCCCC(=O)N4C3)cc(-c3nccs3)nc2c1Br` [Compound 42, N-[18-[8-bromo-2-(thiazol-2-yl)-7-methoxyquinolin-4-yloxy]-2,15-dioxo-3,16-diazatricyclo[14.3.0.0^4,6]nonadec-7-ene-4-carbonyl]-(cyclopropyl)sulfonamide] was tested, and the EC50 was 2 nM. `COc1ccc2c(O[C@@H]3C[C@H]4C(=O)N[C@]5(C(=O)NS(=O)(=O)C6CC6)C[C@H]5/C=C\CCCCCC(C)(C)C(=O)N4C3)cc(-c3nc(C(C)C)cs3)nc2c1Cl` [Compound 55, N-[18-[8-chloro-2-(4-isopropylthiazol-2-yl)-7-methoxyquinolin-4-yloxy]-14,14-dimethyl-2,15-dioxo-3,16-diazatricyclo[14.3.0.0^4,6]nonadec-7-ene-4-carbonyl](cyclopropyl)sulfonamide] showed an EC50 of 198 nM. For `COc1ccc2c(O[C@@H]3C[C@H]4C(=O)N[C@]5(C(=O)O)C[C@H]5/C=C\CCCCCC(=O)N4C3)cc(-c3nc(C(C)C)cs3)nc2c1Cl` [Compound 56, 17-[8-chloro-2-(4-isopropylthiazol-2-yl)-7-methoxyquinolin-4-yloxy]-2,14-dioxo-3,15-diazatricyclo[13.3.0.0^4,6]octadec-7-ene-4-carboxylic acid], the EC50 was 318 nM. Work on `COc1ccc2c(O[C@@H]3C[C@H]4C(=O)N[C@]5(C(=O)NS(=O)(=O)C6CC6)C[C@H]5/C=C\CCCCCC(=O)N4C3)cc(-c3nc(C(C)C)cs3)nc2c1Cl` [Compound 57, N-[17-[8-chloro-2-(4-isopropylthiazol-2-yl)-7-methoxyquinolin-4-yloxy]-2,14-dioxo-3,15-diazatricyclo[13.3.0.0^4,6]octadec-7-ene-4-carbonyl]-(cyclopropyl)sulfonamide] yielded an EC50 of 12 nM.
